For assay [1], the system named is ROS produced by the worms. The conditions noted are these: worms on mutant or wild-type yeast with E. coli, treated with DPI; expected result of a planned test.
From the text: a) Peroxidase enzyme activity: A commercially available assay (Amplex Red peroxidase kit, Molecular Probes) will be used to test peroxidase activity (20). Briefly, ROS produced by the worms, presumably in response to pathogenic attack, oxidize the substrate Amplex Red, to form a red fluorescent product that can be measured spectrophotometrically.
Briefly, worms reared on mixed cultures of mutant or wild-type yeast with E. coli will be treated with DPI.
A further assay relates to C. elegans. The conditions noted are these: worms on mutant or wild-type yeast with E. coli, treated with DPI; expected result of a planned test.

Structures are written as SMILES.

From the text for C. elegans: The worms are carefully monitored twice a day from the time the eggs are exposed to the microbial cultures up to day 4, when the Dar phenotype is clearly visible. […] At day 4, the anal swelling (or Dar) phenotype is scored for worms plated on mixed lawns of E. coli and yeast and compared to worms plated on E. coli lawns without yeast or with heat inactivated yeast.
Briefly, worms reared on mixed cultures of mutant or wild-type yeast with E. coli will be treated with DPI. Its effect on the nematode host will be observed phenotypically (using the Dar phenotype described in Preliminary studies) and biochemically (using the peroxidase assay described in Specific Aim 1B).

Regarding `O=S(=O)([O-])[O-].c1ccc2c(c1)[I+]c1ccccc1-2.c1ccc2c(c1)[I+]c1ccccc1-2` [DPI, Diphenylene iodonium sulfate], the peroxidase activity entry in assay [1] is “low peroxidase activity”. Besides, the Dar phenotype entry with C. elegans was “expect to observe the Dar phenotype”.

These data come from patent publication US8541197B2 (priority 2006, dated 2013).
